Our source for the relative viability values is the supplement of paper PMC10307832.

Common to all, as to experiment: relative viability (nuclei count vs DMSO), 5 days (fraction); higher = more cells survive
Compound in the assay “VX-11e + Palbociclib”: CC1=CN=C(N=C1C2=CNC(=C2)C(=O)N[C@H](CO)C3=CC(=CC=C3)Cl)NC4=C(C=C(C=C4)F)Cl [VX-11e] + CC(=O)c1c(C)c2cnc(Nc3ccc(N4CCNCC4)cn3)nc2n(C2CCCC2)c1=O [Palbociclib] (partner 0.5 µM)
The gist of the method: (§1)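 After 5 days of treatment, lung cancer cells in 1536-well plates were fixed and stained in a single step (final 0.05% Triton X-100, 1% formaldehyde, 1 ug/ml Hoechst) and their nuclei counted on 4× images. Treatment had been applied by pin tool the day after seeding as one drug alone or as a fixed anchor-drug dose with five library-drug doses (not always all listed) in √10 steps. Relative viability is the nuclei count of treated wells divided by that of vehicle wells, and values are medians of duplicate plates.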

Compound in the assay “VX-11e + Alpelisib”: CC1=CN=C(N=C1C2=CNC(=C2)C(=O)N[C@H](CO)C3=CC(=CC=C3)Cl)NC4=C(C=C(C=C4)F)Cl [VX-11e] + Cc1nc(NC(=O)N2CCC[C@H]2C(N)=O)sc1-c1ccnc(C(C)(C)C(F)(F)F)c1 [Alpelisib] (partner 2 µM)
The gist of the method:
as §1

Compound in the assay “VX-11e + Dasatinib”: CC1=CN=C(N=C1C2=CNC(=C2)C(=O)N[C@H](CO)C3=CC(=CC=C3)Cl)NC4=C(C=C(C=C4)F)Cl [VX-11e] + Cc1nc(Nc2ncc(C(=O)Nc3c(C)cccc3Cl)s2)cc(N2CCN(CCO)CC2)n1 [Dasatinib] (partner 0.075 µM)
The gist of the method:
as §1

Compound in the assay “VX-11e + Bortezomib”: CC1=CN=C(N=C1C2=CNC(=C2)C(=O)N[C@H](CO)C3=CC(=CC=C3)Cl)NC4=C(C=C(C=C4)F)Cl [VX-11e] + CC(C)C[C@H](NC(=O)[C@H](Cc1ccccc1)NC(=O)c1cnccn1)B(O)O [Bortezomib] (partner 0.002 µM)
The essentials: as §1

With NCI-H1395, the relative viability was found to be 0.593 with VX-11e + Palbociclib (first compound 0.04 µM); 0.612 with VX-11e + Palbociclib (first compound 0.1265 µM); 0.605 with VX-11e + Palbociclib (first compound 1.265 µM); 0.483 with VX-11e + Palbociclib (first compound 4 µM); 1.08 with VX-11e + Alpelisib (first compound 0.04 µM); 0.916 with VX-11e + Alpelisib (first compound 0.1265 µM). Further, the relative viability with VX-11e + Alpelisib (first compound 0.4 µM) was found to be 0.745; in the assay with VX-11e + Alpelisib (first compound 1.265 µM) it was 1.04; with VX-11e + Alpelisib (first compound 4 µM), 0.675; with VX-11e + Dasatinib (first compound 0.04 µM) it was 0.448; with VX-11e + Dasatinib (first compound 0.1265 µM), 0.383; with VX-11e + Dasatinib (first compound 0.4 µM) it was 0.346. The relative viability is 0.398 with VX-11e + Dasatinib (first compound 1.265 µM) and 0.376 in the assay with VX-11e + Dasatinib (first compound 4 µM).
As to Calu-6, the relative viability is 1.08 in the assay with VX-11e + Bortezomib (first compound 0.04 µM); 1.04 with VX-11e + Bortezomib (first compound 0.1265 µM); 1.03 with VX-11e + Bortezomib (first compound 0.4 µM); 0.333 with VX-11e + Bortezomib (first compound 1.265 µM); 0.206 in the assay with VX-11e + Bortezomib (first compound 4 µM); 1.12 in the assay with VX-11e + Alpelisib (first compound 0.04 µM). In addition, the relative viability with VX-11e + Alpelisib (first compound 0.1265 µM) was found to be 0.98; with VX-11e + Alpelisib (first compound 0.4 µM), 0.94; with VX-11e + Alpelisib (first compound 1.265 µM), 0.456; with VX-11e + Alpelisib (first compound 4 µM) it was 0.125.
In the case of NCI-H358, the relative viability with VX-11e + Palbociclib (first compound 0.04 µM) is 0.122; in the assay with VX-11e + Palbociclib (first compound 0.1265 µM) it was 0.139; with VX-11e + Palbociclib (first compound 0.4 µM), 0.0851; with VX-11e + Palbociclib (first compound 1.265 µM), 0.148; in the assay with VX-11e + Palbociclib (first compound 4 µM), 0.118; in the assay with VX-11e + Alpelisib (first compound 0.04 µM), 0.857. The relative viability with VX-11e + Alpelisib (first compound 0.1265 µM) was found to be 0.89; with VX-11e + Alpelisib (first compound 1.265 µM), 0.541; in the assay with VX-11e + Alpelisib (first compound 4 µM) it was 0.237; with VX-11e + Dasatinib (first compound 0.04 µM) it was 0.17; with VX-11e + Dasatinib (first compound 0.1265 µM), 0.125; with VX-11e + Dasatinib (first compound 0.4 µM), 0.0855. Moreover, the relative viability amounted to 0.162 with VX-11e + Dasatinib (first compound 1.265 µM) and 0.103 in the assay with VX-11e + Dasatinib (first compound 4 µM).
Consider NCI-H1299, for which the relative viability with VX-11e + Bortezomib (first compound 0.04 µM) was found to be 0.987; with VX-11e + Bortezomib (first compound 0.1265 µM), 0.978; with VX-11e + Bortezomib (first compound 0.4 µM), 0.978; with VX-11e + Bortezomib (first compound 1.265 µM), 1.05; with VX-11e + Bortezomib (first compound 4 µM), 0.556; with VX-11e + Alpelisib (first compound 0.04 µM), 1.11. Besides, the relative viability with VX-11e + Alpelisib (first compound 0.1265 µM) stood at 1.03; in the assay with VX-11e + Alpelisib (first compound 0.4 µM), 1.05; with VX-11e + Alpelisib (first compound 1.265 µM) it was 1.11; with VX-11e + Alpelisib (first compound 4 µM), 0.708.
Turning to NCI-H1793, the relative viability came out at 0.255 with VX-11e + Palbociclib (first compound 0.1265 µM); 0.28 in the assay with VX-11e + Palbociclib (first compound 1.265 µM); 0.232 with VX-11e + Palbociclib (first compound 4 µM); 0.519 in the assay with VX-11e + Alpelisib (first compound 0.1265 µM); 0.539 in the assay with VX-11e + Alpelisib (first compound 1.265 µM); 0.301 with VX-11e + Alpelisib (first compound 4 µM). In addition, the relative viability in the assay with VX-11e + Dasatinib (first compound 0.04 µM) is 0.197; with VX-11e + Dasatinib (first compound 0.1265 µM), 0.292; with VX-11e + Dasatinib (first compound 1.265 µM), 0.326; in the assay with VX-11e + Dasatinib (first compound 4 µM), 0.287.
In the case of HCC-44, the relative viability is 0.984 with VX-11e + Palbociclib (first compound 0.04 µM); 0.885 with VX-11e + Palbociclib (first compound 0.1265 µM); 0.96 with VX-11e + Palbociclib (first compound 0.4 µM); 1.07 with VX-11e + Palbociclib (first compound 1.265 µM); 1.29 with VX-11e + Palbociclib (first compound 4 µM); 0.913 with VX-11e + Bortezomib (first compound 0.04 µM). Also, the relative viability with VX-11e + Bortezomib (first compound 0.1265 µM) was 0.912; in the assay with VX-11e + Bortezomib (first compound 0.4 µM), 0.857; with VX-11e + Bortezomib (first compound 1.265 µM), 0.646; with VX-11e + Bortezomib (first compound 4 µM), 0.453; with VX-11e + Alpelisib (first compound 0.04 µM), 0.796; with VX-11e + Alpelisib (first compound 0.1265 µM), 0.766. The relative viability was found to be 0.716 in the assay with VX-11e + Alpelisib (first compound 0.4 µM), 0.614 with VX-11e + Alpelisib (first compound 1.265 µM) and 0.355 with VX-11e + Alpelisib (first compound 4 µM).
In the case of NCI-H1703, the relative viability was 0.473 with VX-11e + Bortezomib (first compound 0.04 µM); 0.414 with VX-11e + Bortezomib (first compound 0.1265 µM); 0.258 in the assay with VX-11e + Bortezomib (first compound 0.4 µM); 0.35 with VX-11e + Bortezomib (first compound 1.265 µM); 0.21 with VX-11e + Bortezomib (first compound 4 µM); 0.303 with VX-11e + Alpelisib (first compound 0.04 µM). Moreover, the relative viability with VX-11e + Alpelisib (first compound 0.1265 µM) is 0.401; with VX-11e + Alpelisib (first compound 0.4 µM), 0.303; with VX-11e + Alpelisib (first compound 1.265 µM) it was 0.444; with VX-11e + Alpelisib (first compound 4 µM), 0.294.
Consider SK-MES-1, for which the relative viability was 0.326 in the assay with VX-11e + Palbociclib (first compound 0.04 µM); 0.329 with VX-11e + Palbociclib (first compound 0.1265 µM); 0.355 with VX-11e + Palbociclib (first compound 0.4 µM); 0.327 with VX-11e + Palbociclib (first compound 1.265 µM); 0.244 with VX-11e + Palbociclib (first compound 4 µM); 1.31 with VX-11e + Alpelisib (first compound 0.04 µM). Moreover, the relative viability stood at 0.815 with VX-11e + Alpelisib (first compound 0.1265 µM); 0.718 in the assay with VX-11e + Alpelisib (first compound 0.4 µM); 0.644 in the assay with VX-11e + Alpelisib (first compound 1.265 µM); 0.208 with VX-11e + Alpelisib (first compound 4 µM); 0.403 with VX-11e + Dasatinib (first compound 0.04 µM); 0.332 with VX-11e + Dasatinib (first compound 0.1265 µM). Besides, the relative viability with VX-11e + Dasatinib (first compound 0.4 µM) was 0.393; with VX-11e + Dasatinib (first compound 1.265 µM), 0.188; with VX-11e + Dasatinib (first compound 4 µM), 0.185.
LK-2: the relative viability with VX-11e + Palbociclib (first compound 0.04 µM) came to 0.557; with VX-11e + Palbociclib (first compound 0.1265 µM) it was 0.594; in the assay with VX-11e + Palbociclib (first compound 0.4 µM) it was 0.566; with VX-11e + Palbociclib (first compound 1.265 µM), 0.399; in the assay with VX-11e + Palbociclib (first compound 4 µM), 0.45; with VX-11e + Alpelisib (first compound 0.1265 µM) it was 1.06. The relative viability was 1.21 with VX-11e + Alpelisib (first compound 0.4 µM); 0.543 with VX-11e + Alpelisib (first compound 4 µM); 0.25 with VX-11e + Dasatinib (first compound 0.04 µM); 0.344 with VX-11e + Dasatinib (first compound 0.1265 µM); 0.244 in the assay with VX-11e + Dasatinib (first compound 0.4 µM); 0.155 with VX-11e + Dasatinib (first compound 1.265 µM). The relative viability with VX-11e + Dasatinib (first compound 4 µM) stood at 0.257.
As to NCI-H1650, the relative viability in the assay with VX-11e + Palbociclib (first compound 0.04 µM) is 0.314; with VX-11e + Palbociclib (first compound 0.1265 µM), 0.258; in the assay with VX-11e + Palbociclib (first compound 0.4 µM) it was 0.158; with VX-11e + Palbociclib (first compound 1.265 µM) it was 0.253; with VX-11e + Palbociclib (first compound 4 µM), 0.28; with VX-11e + Bortezomib (first compound 0.04 µM) it was 0.192. Also, the relative viability with VX-11e + Bortezomib (first compound 0.1265 µM) is 0.198; in the assay with VX-11e + Bortezomib (first compound 0.4 µM), 0.235; in the assay with VX-11e + Bortezomib (first compound 1.265 µM), 0.199; with VX-11e + Bortezomib (first compound 4 µM) it was 0.195; in the assay with VX-11e + Dasatinib (first compound 0.04 µM), 0.304; with VX-11e + Dasatinib (first compound 0.1265 µM), 0.385. The values for the relative viability in the assay with VX-11e + Dasatinib (first compound 1.265 µM) and with VX-11e + Dasatinib (first compound 4 µM) were 0.312 and 0.187, respectively.
On to ChaGo-K-1, for which the relative viability turned out to be 0.982 with VX-11e + Palbociclib (first compound 0.04 µM); 0.821 in the assay with VX-11e + Palbociclib (first compound 0.1265 µM); 0.915 with VX-11e + Palbociclib (first compound 0.4 µM); 0.947 with VX-11e + Palbociclib (first compound 1.265 µM); 0.845 in the assay with VX-11e + Palbociclib (first compound 4 µM); 1.01 with VX-11e + Bortezomib (first compound 0.04 µM). The relative viability with VX-11e + Bortezomib (first compound 0.4 µM) is 1.11; with VX-11e + Bortezomib (first compound 1.265 µM), 0.759; with VX-11e + Bortezomib (first compound 4 µM) it was 0.772; in the assay with VX-11e + Dasatinib (first compound 0.04 µM), 0.516; with VX-11e + Dasatinib (first compound 0.1265 µM) it was 0.587; with VX-11e + Dasatinib (first compound 0.4 µM), 0.584. The relative viability worked out at 0.654 in the assay with VX-11e + Dasatinib (first compound 1.265 µM) and 0.557 in the assay with VX-11e + Dasatinib (first compound 4 µM).
Regarding IA-LM, the relative viability with VX-11e + Bortezomib (first compound 0.04 µM) was determined as 0.959; with VX-11e + Bortezomib (first compound 0.1265 µM), 0.941; in the assay with VX-11e + Bortezomib (first compound 0.4 µM), 0.927; in the assay with VX-11e + Bortezomib (first compound 1.265 µM) it was 0.306; with VX-11e + Bortezomib (first compound 4 µM), 0.105; with VX-11e + Alpelisib (first compound 0.04 µM), 0.855. In addition, the relative viability with VX-11e + Alpelisib (first compound 0.1265 µM) turned out to be 0.734; in the assay with VX-11e + Alpelisib (first compound 0.4 µM), 0.756; in the assay with VX-11e + Alpelisib (first compound 1.265 µM), 0.387; with VX-11e + Alpelisib (first compound 4 µM), 0.143.
